The text below walks through data of patent US8710092B2, “Substituted indolo 4,3 FG quinolines useful for treating migraine” (Map Pharmaceuticals, Inc., priority 2009, dated 2014).

Read-outs that look alike come from different tables or passages of the source.

A word on the EC50: it is the concentration at which the effect is half-maximal. Broadly, the IC50 is the midpoint of a concentration-inhibition curve. Low readings indicate inhibition by little substance, high ones a need for much substance. As a reminder, the melting point is the temperature of the solid-liquid transition.

In series [1] the target is T1, 5-HT2B receptor (Homo sapiens, UniProt P41595).
T1 construct: Millipore, Inc. (GPCR Profiler Service Laboratory, St. Charles, Mo.)
T1 sequence (P41595 whole entry): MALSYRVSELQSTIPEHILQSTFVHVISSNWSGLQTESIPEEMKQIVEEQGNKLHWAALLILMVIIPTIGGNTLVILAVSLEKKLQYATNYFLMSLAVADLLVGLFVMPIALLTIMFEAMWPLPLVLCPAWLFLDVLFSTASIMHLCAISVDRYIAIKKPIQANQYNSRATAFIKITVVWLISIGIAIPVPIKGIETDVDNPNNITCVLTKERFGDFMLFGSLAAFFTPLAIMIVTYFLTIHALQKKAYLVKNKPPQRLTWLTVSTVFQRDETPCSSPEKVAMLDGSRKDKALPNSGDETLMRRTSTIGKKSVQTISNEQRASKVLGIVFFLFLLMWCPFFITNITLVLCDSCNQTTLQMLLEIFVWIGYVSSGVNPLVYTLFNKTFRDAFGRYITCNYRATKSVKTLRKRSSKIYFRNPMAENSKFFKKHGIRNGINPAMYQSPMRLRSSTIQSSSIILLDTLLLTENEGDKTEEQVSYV
As to the kind of experiment: FLIPR assay, agonist selectivity at the 5-HT2B receptor. Type of series: cell-based. Here is the method: A FLIPR assay was conducted to monitor agonist selectivity for 1-methyl-dihydroergotamine against the 5-HT2B receptor. The assay was completed with an eight point, 4 fold serial dilution series starting with 10 μM concentration to obtain full dose response curve. Percentage activation values were determined for 1-methyl-dihydroergotamine on the 5-HT2B receptor. Agonist selectivity was determined upon initial addition of for 1-methyl-dihydroergotamine followed by a 5 minute incubation at 25° C. Following compound incubation, reference agonists were added at EC80. Agonist percentage activation determinations were obtained by assaying 1-methyl-dihydroergotamine and referencing the Emax control for the 5-HT2B receptor. The assay was performed by GPCR Profiler™ Service Laboratory, St. Charles, Mo., Millipore, Inc.

Series [2] concerns the target T2, 5-HT2c receptor (Homo sapiens, UniProt P28335).
T2 sequence (P28335 33-458): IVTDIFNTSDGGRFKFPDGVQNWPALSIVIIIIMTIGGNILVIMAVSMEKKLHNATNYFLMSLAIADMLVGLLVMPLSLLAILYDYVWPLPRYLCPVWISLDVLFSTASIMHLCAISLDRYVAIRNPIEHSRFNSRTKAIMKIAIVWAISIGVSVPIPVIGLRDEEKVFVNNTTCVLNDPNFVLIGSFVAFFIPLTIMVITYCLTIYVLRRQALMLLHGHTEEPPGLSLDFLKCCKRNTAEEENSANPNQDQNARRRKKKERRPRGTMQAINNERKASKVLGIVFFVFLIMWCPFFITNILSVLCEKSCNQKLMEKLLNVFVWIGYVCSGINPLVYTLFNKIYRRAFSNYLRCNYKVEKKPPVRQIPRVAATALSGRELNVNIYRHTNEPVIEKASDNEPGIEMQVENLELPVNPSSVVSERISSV
Kind of series: FLIPR antagonist assay at the 5-HT2c receptor (analogous to Example 3). Type of series: cell-based.

For series [3], the target named is T2, 5-HT2c receptor. Kind of series: FLIPR agonist assay at the 5-HT2c receptor (analogous to Example 2). Type of series: cell-based. The note with it: for agonist activity at the 5-HT2c receptor: FLIPR.
For series [4], the target named is T1, 5-HT2B receptor. Kind of series: FLIPR assay, antagonist selectivity at the 5-HT2B receptor. Format: cell-based. The conditions noted are these: FIG. 2. Here is the method: A FLIPR assay was conducted to monitor antagonist selectivity for 1-methyl-dihydroergotamine against the 5-HT2B receptor. The assay was completed with an eight point, 4 fold serial dilution series starting with 10 μM concentration to obtain full dose response curve. Percentage inhibition values were determined for 1-methyl-dihydroergotamine on the 5-HT2B receptor. Antagonist percentage inhibition determinations were obtained by assaying 1-methyl-dihydroergotamine and referencing the Emax control for the 5-HT2B receptor. The assay above was performed by GPCR Profiler™ Service Laboratory, St. Charles, Mo., Millipore, Inc.

For series [5], the target named is 5-HT1D receptor (Homo sapiens, UniProt P28221). As to the kind of experiment: Membrane based GTPγS assay, agonist activity at 5-HT1D. Format: biochemical. The note with it: 5-CT reference agonist, FIG. 6.
5-HT1D receptor, sequence (P28221 whole entry): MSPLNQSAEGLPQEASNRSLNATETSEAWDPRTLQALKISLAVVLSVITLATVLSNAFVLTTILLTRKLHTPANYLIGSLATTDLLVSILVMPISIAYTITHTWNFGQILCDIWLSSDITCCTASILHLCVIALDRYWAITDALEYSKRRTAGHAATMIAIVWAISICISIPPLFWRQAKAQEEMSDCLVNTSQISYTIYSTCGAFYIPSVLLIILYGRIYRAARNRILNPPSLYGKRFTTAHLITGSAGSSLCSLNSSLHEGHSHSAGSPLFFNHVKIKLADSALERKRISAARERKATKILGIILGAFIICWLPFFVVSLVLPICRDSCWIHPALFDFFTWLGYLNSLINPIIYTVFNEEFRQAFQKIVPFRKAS
The target of series [6] is 5-HT1B receptor (Homo sapiens, UniProt P28222). As to the kind of experiment: Membrane based GTPγS assay, agonist activity at 5-HT1B. Type of series: biochemical. The conditions noted are these: 5-CT reference agonist, FIG. 5. How it is done:
A membrane based GTPγS assay was conducted to monitor agonist activity of test compounds at the 5-HT1B receptor, summarized in FIG. 5. Test compounds were serially diluted to provide a wide concentration range sufficient to calculate EC50. The results are expressed as a percent of activation. 5-CT was used as a reference agonist.

The target in series [7] is 5-HT7 receptor (Homo sapiens, UniProt P34969). As to the kind of experiment: cAMP HTRF assay, antagonist activity at 5-HT7 (analogous to Example 6). Type of series: cell-based. The conditions noted are these: percent of control response to 300 nM serotonin, FIG. 4. Here is the method:
(§1) A cell based assay (cAMP modulation with HTRF detection) was conducted to monitor agonist activity of test compounds at the 5-HT1A receptor, summarized in FIG. 3. Test compounds were serially diluted to provide a wide concentration range sufficient to calculate EC50. The cAMP concentration was determined and results are expressed as a percent of the control response to 100 nM 8-OH-DPAT (control agonist).
The assay was performed analogously to the assay described in Example 6. Antagonist activity of test compounds at the 5-HT7 receptor, using serotonin as a control reference agonist, was measured. Test compounds were serially diluted to provide a wide concentration range sufficient to calculate IC50. The results are expressed as a percent of the control response to 300 nM serotonin.

The target of series [8] is T3, 5-HT1A receptor (Homo sapiens, UniProt P08908).
T3 sequence (P08908 1-422): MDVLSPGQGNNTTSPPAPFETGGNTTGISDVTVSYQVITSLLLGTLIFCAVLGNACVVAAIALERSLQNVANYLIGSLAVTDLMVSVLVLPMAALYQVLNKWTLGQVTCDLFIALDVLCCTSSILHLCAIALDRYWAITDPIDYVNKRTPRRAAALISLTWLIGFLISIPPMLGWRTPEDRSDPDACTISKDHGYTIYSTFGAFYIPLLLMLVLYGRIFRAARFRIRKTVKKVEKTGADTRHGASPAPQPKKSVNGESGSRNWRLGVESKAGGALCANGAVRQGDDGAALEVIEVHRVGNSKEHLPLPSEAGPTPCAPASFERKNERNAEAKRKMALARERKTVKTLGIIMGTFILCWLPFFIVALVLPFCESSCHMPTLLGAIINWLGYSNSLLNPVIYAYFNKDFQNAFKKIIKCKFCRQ
As to the kind of experiment: Cell based assay (cAMP modulation with HTRF detection), agonist activity at 5-HT1A. The note with it: percent of control response to 100 nM 8-OH-DPAT, FIG. 3. Here is the method:
as §1
(In general: Time-resolved FRET reads energy transfer from a long-lived donor to a nearby acceptor.)

Setting [9] is: FLIPR, FIG. 1, read-out: EC50, agonism of the 5-HT2B receptor.

5-HT1B receptor, sequence (P28222 whole entry): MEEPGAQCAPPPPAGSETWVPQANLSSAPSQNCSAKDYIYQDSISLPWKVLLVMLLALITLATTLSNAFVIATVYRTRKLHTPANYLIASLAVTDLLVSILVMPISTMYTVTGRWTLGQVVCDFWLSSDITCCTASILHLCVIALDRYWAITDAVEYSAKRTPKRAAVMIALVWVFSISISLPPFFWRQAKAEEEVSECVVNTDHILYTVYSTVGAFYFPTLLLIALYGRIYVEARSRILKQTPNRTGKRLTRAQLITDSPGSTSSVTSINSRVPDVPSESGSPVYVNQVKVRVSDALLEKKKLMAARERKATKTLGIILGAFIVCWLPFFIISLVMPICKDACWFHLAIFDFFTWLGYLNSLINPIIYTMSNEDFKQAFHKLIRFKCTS
5-HT7 receptor, sequence (P34969 whole entry): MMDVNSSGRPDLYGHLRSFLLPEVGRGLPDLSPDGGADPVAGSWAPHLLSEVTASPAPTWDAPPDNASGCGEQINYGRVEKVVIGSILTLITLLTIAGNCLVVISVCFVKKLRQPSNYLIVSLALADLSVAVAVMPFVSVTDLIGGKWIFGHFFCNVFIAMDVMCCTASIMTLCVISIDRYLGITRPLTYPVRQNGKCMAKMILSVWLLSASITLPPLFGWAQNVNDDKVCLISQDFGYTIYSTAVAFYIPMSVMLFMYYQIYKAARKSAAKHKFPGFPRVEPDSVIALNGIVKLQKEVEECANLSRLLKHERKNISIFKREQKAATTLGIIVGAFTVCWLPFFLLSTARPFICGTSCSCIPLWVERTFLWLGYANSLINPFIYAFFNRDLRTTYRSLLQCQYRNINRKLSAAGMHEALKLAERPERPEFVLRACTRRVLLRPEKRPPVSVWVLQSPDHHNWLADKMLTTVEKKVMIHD

Turning to `CC(N)Cc1c[nH]c2ccc(O)cc12` (stereo not drawn) [alpha-Me-5HT], in series [1] (setting [9]), the concentration for a half-maximal effect (EC50) amounted to 0.2 nM.

For the compound `CNS(=O)(=O)Cc1ccc2[nH]cc(CCN(C)C)c2c1` [sumatriptan], the “antagonist activity at the 5-HT2c receptor” value in [2] (FLIPR) is “no antagonist activity”. In [3], the “agonist activity at the 5-HT2c receptor” value is listed as “no agonist activity”.

Regarding `CN1C[C@H](C(=O)N[C@]2(C)O[C@@]3(O)[C@@H]4CCCN4C(=O)[C@H](Cc4ccccc4)N3C2=O)C=C2c3cccc4[nH]cc(c34)C[C@H]21` [ergotamine], the EC50 in series [1] came out at 160 nM; in series [3] it was 5000 nM.

In the case of `CN1C[C@H](C(=O)N[C@]2(C)O[C@@]3(O)[C@@H]4CCCN4C(=O)[C@H](Cc4ccccc4)N3C2=O)C[C@@H]2c3cccc4[nH]cc(c34)C[C@H]21` [dihydroergotamine], the EC50 in series [1] came to 260 nM. Moreover, the midpoint of inhibition in series [2], the IC50, lay at 280 nM. Also, the “agonist activity at the 5-HT2c receptor” value in series [3] is reported as “no agonist activity”.

Regarding `CN1CC(C(=O)N[C@]2(C)O[C@@]3(O)C4CCCN4C(=O)[C@H](Cc4ccccc4)N3C2=O)CC2c3cccc4c3c(cn4C)CC21` (stereo partly shown) [MAP0057, 1-Methyl-Dihydroergotamine], the melting point lay within 216 to 218 °C. This compound also returned an IC50 in [4] of 16 nM. In [5], the response was half-maximal at 0.45 nM (EC50). Further, in [6], the concentration for a half-maximal effect (EC50) was determined as 1.02 nM. Further, in [7], the IC50 was found to be 69 nM. Moreover, in [1] (FLIPR, dilution series starting with 10 μM, FIG. 1), the “agonist activity at the 5-HT2B receptor” value is “no agonist activity”. This compound came in with an IC50 in series [2] of 460 nM. In addition, the “agonist activity at the 5-HT2c receptor” value in series [3] is reported as “no agonist activity”. In [8], this compound registered an EC50 of 16 nM.

`CCCN1C[C@H](CSC)C[C@@H]2c3cccc4[nH]cc(c34)C[C@H]21` [pergolide]: the EC50 in series [1] (setting [9]) came out at 10 nM. The “agonist activity at the 5-HT2c receptor” value in series [3] is on record as “no agonist activity”.
